Several values for one entry are separate records, joined by “and”; a condition that tells them apart may be missing. Identical values can stand only once.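 1) Cells in 96-well plates. 2) Compound, 48 h, 5 concentrations. 3) Linear interpolation between surrounding doses. 4) Unreached endpoint = highest concentration. Here, GI50 denotes the concentration required for 50% inhibition of growth. TGI denotes the concentration required for complete inhibition of growth.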
Key:
Assay in all cases: inhibition of tumour cell growth, NCI panel, 48 h
SN12C renal = test system: SN12C renal
PC-3 prostate = test system: PC-3 prostate
A498 renal = test system: A498 renal
U251 CNS = test system: U251 CNS
A549 NSCLC = test system: A549 NSCLC
HL-60(TB) leukemia = test system: HL-60(TB) leukemia
K-562 leukemia = test system: K-562 leukemia
RXF 393 renal = test system: RXF 393 renal
SK-OV-3 ovarian = test system: SK-OV-3 ovarian
M14 melanoma = test system: M14 melanoma

| SMILES | GI50 (SN12C renal) | TGI (SN12C renal) | TGI (PC-3 prostate) | TGI (A498 renal) | GI50 (U251 CNS) | TGI (U251 CNS) | GI50 (A549 NSCLC) | TGI (A549 NSCLC) | TGI (HL-60(TB) leukemia) | GI50 (K-562 leukemia) | TGI (K-562 leukemia) | GI50 (RXF 393 renal) | TGI (RXF 393 renal) | GI50 (SK-OV-3 ovarian) | TGI (SK-OV-3 ovarian) | GI50 (M14 melanoma) | TGI (M14 melanoma) | GI50 (PC-3 prostate) | GI50 (A498 renal) | GI50 (HL-60(TB) leukemia) |
| --- | --- | --- | --- | --- | --- | --- | --- | --- | --- | --- | --- | --- | --- | --- | --- | --- | --- | --- | --- | --- |
| COc1cc2c(cc1O)CCN[C@@]21CS[C@H]2c3c(OC(C)=O)c(C)c4c(c3C(COC1=O)N1C2C2NC(Cc3cc(C)c(OC)c(O)c32)[C@@H]1O)OCO4 (some centres not stated) | 4.5 ng/mL | 4.8 ng/mL | < 0.01 µM | < 10 nM and 6.8e-07 µg/mL and 0.0045 µg/mL | 4.5 ng/mL | < 10 nM and 0.28 µg/mL | 0.000368 ng/mL | 10.4 µM | > 100 µM and 8.2e-07 µg/mL | 4.5 ng/mL | 11.3 µM and 0.0045 µg/mL | 4.5 ng/mL | < 10 nM and 1.9e-07 µg/mL and 0.0045 µg/mL | 4.5 ng/mL | 10.9 µM and 1.47 µg/mL | 4.5 ng/mL | < 10 nM and 1.8e-07 µg/mL and 0.0045 µg/mL | – | – | – |
| Nc1nc(SCC#CCCl)c2[nH]cnc2n1 | 4.75 µM | 18 µM | 75.8 µM | 6.87 µM | 2.97 µM | 7.79 µM | 7.04 µM | 19.8 µM | 6.61 µM | 4.5 µM | 40.5 µM | 3.05 µM | 14.9 µM | 7.56 µM | 27.6 µM | 6.58 µM | 20.9 µM | 14.6 µM | 1.64 µM | 2.08 µM |
| O=C1c2ccccc2C(=O)c2c1ccc1c3ccccc3n(-c3ccccc3)c21 | – | 32.3 µM | > 100 µM | 71.9 µM | – | > 100 µM | – | 58.1 µM | 8.47 µM | – | 29.8 µM | – | 34.2 µM | – | > 100 µM | – | 29.8 µM | – | – | – |
| Oc1ccccc1/C=N\NC(=S)Nc1ccc(F)cc1 | 2.37 µM | > 93.7 µM | > 100 µM | 49.3 µM | 0.639 µM | > 100 µM | 2.33 µM | > 100 µM | 6.22 µM | 0.582 µM | > 100 µM | 2.63 µM | 65.8 µM | 2.11 µM | 76.5 µM | 1.01 µM | 3.57 µM | 7.81 µM | 4.65 µM | 0.906 µM |
| COc1oc(C2C/C(=C/C(C)=C/C(C)=C/C(C)=C/c3ccc([N+](=O)[O-])cc3)CO2)c(C)c(=O)c1C (configuration not stated) | – | 27 µM | 18.4 µM | 47.4 µM | – | 31.5 µM | – | 68.3 µM | 8.13 µM | – | 21.3 µM | – | 95.1 µM | – | > 63.5 µM | – | > 100 µM | – | – | – |
| COc1cc(/C=N\Nc2ccccc2)ccc1OC(=O)c1ccccc1 | 11 µM | > 100 µM | 22.7 µM | > 92.9 µM | 8.38 µM | 36.5 µM | 4.01 µM | 37.5 µM | > 72.1 µM | 0.369 µM | 11.8 µM | 23.2 µM | 74.6 µM | 45.6 µM | > 100 µM | 0.677 µM | 15.8 µM | 0.921 µM | 20 µM | 0.544 µM |
| N#Cc1ccc2c(-c3ccnc(NC4CC4)n3)c(-c3ccc(F)cc3)nn2c1 | > 25 µM | > 25 µM | > 25 µM | > 25 µM | > 25 µM | > 25 µM | > 25 µM | > 25 µM | > 25 µM | > 25 µM | > 25 µM | > 25 µM | > 25 µM | 22.4 µM | > 25 µM | > 25 µM | > 25 µM | > 25 µM | > 25 µM | > 25 µM |
| COc1ccc(/C(=C(\c2ccccc2)[N+](=O)[O-])c2ccc(OCCN3CCCC3)cc2)cc1 | 7.79 µM | 22.4 µM | 16.6 µM | 10.9 µM | 2.84 µM | 12.6 µM | 4.68 µM | 17.3 µM | 4.6 µM | 1.1 µM | 6.14 µM | 1.65 µM | 3.76 µM | 5.5 µM | 18.3 µM | 1.82 µM | 3.47 µM | 4.53 µM | 2.19 µM | 1.94 µM |
| CC/C(=C/c1ccc(OC)cc1)[N+](=O)[O-] | 2.28 µM | 5.44 µM | 3.87 µM | 9.09 µM | 3.18 µM | 10.5 µM | 6.07 µM | 19.6 µM | 5.47 µM | 1.95 µM | > 100 µM | 1.85 µM | 3.39 µM | 14.4 µM | 27.5 µM | 1.85 µM | 4.18 µM | 1.98 µM | 1.87 µM | 1.89 µM |
| CCCCCn1sc(=O)n(Cc2ccc(CNC(=O)C(C)c3ccc(CC(C)C)cc3)cc2)c1=O (configuration not stated) | 1.1 µM | 2.37 µM | 2.47 µM | 2.81 µM | 1.56 µM | 3.04 µM | 1.65 µM | 4.26 µM | > 20.5 µM | 0.602 µM | > 61.1 µM | 0.727 µM | 1.94 µM | 3.5 µM | 14.7 µM | 0.631 µM | 1.92 µM | 0.876 µM | 1.46 µM | 1.68 µM |
| Cc1ccc(C)c(N2CCN(c3ccncc3N)CC2)c1 | 20.9 µM | > 100 µM | 84.7 µM | 25.9 µM | 4.78 µM | 97.4 µM | 17.5 µM | > 100 µM | 54.9 µM | 8.67 µM | 57.1 µM | 9.31 µM | 36.4 µM | 21.9 µM | 73.5 µM | 23 µM | 62.1 µM | 14.2 µM | 3.65 µM | 15.9 µM |
| CN(N=O)c1ccc(/C=C/c2ccnc3ccccc23)cc1 | – | > 100 µM | > 100 µM | > 100 µM | – | > 100 µM | – | > 100 µM | > 100 µM | – | > 100 µM | – | > 100 µM | – | > 100 µM | – | > 100 µM | – | – | – |
| CC1CCc2c(C(=O)Nc3ncc(Cc4cccc([N+](=O)[O-])c4)s3)csc2C1 (configuration not stated) | 1.49 µM | > 100 µM | > 100 µM | 0.864 µM | 0.523 µM | > 100 µM | 0.944 µM | > 100 µM | 3.8 µM | 0.213 µM | > 100 µM | 0.938 µM | 4.02 µM | 0.436 µM | > 100 µM | 0.4 µM | > 100 µM | 0.618 µM | 0.267 µM | 0.324 µM |

From PubChem BioAssay (NCI)
